Experimental data from ChEMBL document CHEMBL4330092, “Optimization of Vinyl Sulfone Derivatives as Potent Nuclear Factor Erythroid 2-Related Factor 2 (Nrf2) Activators for Parkinson's Disease Therapy” (J Med Chem, 2019).

Assays:
[1] = Aqueous solubility of the compound; type: physicochemical; conditions: aqueous medium
[2] = Lipophilicity, log P of the compound; type: physicochemical; conditions: octanol/water
[3] = Oral bioavailability in rat at 10 mg/kg; type: ADME, organism-based; conditions: in vivo
[4] = Dissociation constant, pKa of the compound; type: physicochemical
[5] = Tmax in rat at 10 mg/kg, po; type: ADME, organism-based; conditions: in vivo

Row | Compound | solubility [1] [mg/mL] | logP [2] | bioavailability [3] [%] | pKa [4] | Tmax [5] [min]
1 | COc1ccccc1S(=O)(=O)/C=C/c1ccccc1Cl | < 0.01 | – | – | – | –
2 | Cl.O=S(=O)(/C=C/c1ncccc1F)c1ccc(OCCCN2CCOCC2)cc1 | > 30 | 2.29 | 45.3 | 7.58 | 24
